# Measured values reported in patent US10668049B2, “Methods of treating cognitive decline with transforming growth factor beta inhibitors” (The Regents of the University of California, priority 2008, dated 2020).
# Key:
# [1] = test system: albumin-induced epileptogenesis; test: EEG recording from awake rats during albumin-induced epileptogenesis; format: in vivo, rat
# neocortical slices = test: Field potential recordings of epileptiform activity in neocortical slices; format: cell-based, rat
# Procedure: Brain slices for the in vitro experiments were prepared by means of standard techniques (Ivens et al., 2007; Pavlovsky et al., 2003; Seiffert et al., 2004). Slices were transferred to a recording chamber where they were incubated in aCSF containing BSA (6.7 mg/ml), TGF-β1 (10 ng/ml) or artificial serum (aSerum, composition based on aCSF with the following changes, composition in mM: 0.8 MgSO4, 1.3 CaCl2, 5.7 KCl, 1 L-glutamine, 0.1 albumin). To block the activity of TGF-β1, slices were incubated in aCSF containing SB431542 (10 μM) before the addition of TGF-β1 (10 ng/ml). To block TGF-βRs, slices were incubated in aCSF containing SB431542 (10 μM) and TGF-βRII antibody (10 μg/ml) for 30 min followed by incubation in BSA in the presence of TGF-βR blockers. For detection of epileptiform activity, field potentials were recorded >4 h following incubation in cortical layer IV using extracellular glass microelectrodes (˜3 MΩ) in response to bipolar stimulation at the border of white and grey matter.
# To assess the hypothesis that activation of the TGF-β signaling pathway is the mechanism underlying albumin-induced epileptogenesis, we activated this pathway directly by incubating neocortical slices with TGF-β1 (10 ng/mL) in artificial cerebrospinal fluid (aCSF) and performed electrophysiological recordings. These recordings were compared to those of slices treated with a solution containing serum levels of electrolytes and 0.1 mM albumin (aSERUM, previously shown to induce epileptogenesis; Ivens et al., 2007), albumin in aCSF, or aCSF (control). […] When albumin was added to the control aCSF solution, epileptiform activity was recorded in response to stimulation of the white matter (n=8 out of 12 slices, 6 animals). Importantly. TGF-β1 treatment was sufficient to recapitulate epileptiform activity similar to that seen following treatment with aSERUM and albumin in aCSF (n=5 out of 5 slices, 4 animals; n=7 out of 9 slices, 3 animals; and n=8 out of 12 slices, 6 animals, respectively). In all three cases, the evoked epileptiform activity, was all-or-none in nature, paroxysmal and prolonged, similar to that seen following BBB opening with bile salts (Ivens et al., 2007; Seiffert et al., 2004) and typical to that observed in acute models of epilepsy (Gutnick et al., 1982).
# To further confirm that the TGF-β1 induced epileptiform activity was dependent on the TGF-βR mediated pathway, we performed additional trials of the above experiments in the presence of two TGF-βR blockers (SB431542, the TGF-βRI kinase activity inhibitor and TGF-βRII antibody).
# [2] = molecular target: T1, astrocyte specific glutamate transporter, SLC1A2 (Rattus norvegicus, UniProt P31596); test: Whole cell patch recording of NMDA-mediated EPSCs in cortical pyramidal neurons; format: cell-based; details: DHK 100 μM
# T1 construct: In vitro intracellular recordings were obtained from pyramidal neurons (layer 2-3) 23-28 h following the in vivo treatment; from tissue; host or cells: acute rat neocortical slices (astrocytic transporter; recordings from layer 2-3 pyramidal neurons)
# Procedure: In vitro intracellular recordings were obtained from pyramidal neurons (layer 2-3) 23-28 h following the in vivo treatment with albumin or from control rats. Currents were recorded using the whole cell patch configuration, as described previously (Pavlovsky et al., 2003). In brief, glass pipettes were pulled from capillaries using a vertical puller (Narashige, Greenvale, N.Y.) and filled with a solution comprising (in mM): 150 CsCl, 1 MgCl2, 10 HEPES, 4 Na2ATP, 0.1 CaCl2, and 1.1 mM EGTA, pH adjusted to 7.2 with a final osmolarity of 290-310 mOsm. Cells were visualized using infrared differential interference phase contrast video-microscopy. Recordings were performed using AxoPatch 700B (Axon Instruments, Foster City, Calif.), digitized at 10 kHz and recorded using pClamp 9.2 (Axon Instruments, Foster City, Calif.). Patch pipette's resistance was 4-5 MΩ. Series resistance was not electronically compensated; however, cells in which series resistance varied by more than 25% were excluded from the analysis. Stimulation protocols were started at least 5 min following impalement to allow intracellular dialysis with the pipette solution. Excitatory post-synaptic currents (EPSCs) were evoked—using a bipolar stimulating electrode positioned <200 μm from the recorded cell—at 75% of the intensity producing maximal EPSCs. N-methyl-D-aspartic acid (NMDA) currents were recorded in the presence of blockers of α-amino-3-hydroxy-5-methyl-4-isoxazole-propionic acid (AMPA)/kainate (i.e., 30 μM CNQX) and of gamma-aminobutyric acid A (GABAA) receptors (i.e., 10 μM bicuculine methiodide). Cells were voltage clamped to +40 mV to alleviate NMDA receptor blockade and inactivate fast Na^+ currents. In some experiments, dihydrokainic acid (DHK, Tocris, Bristol, UK), 100 μM, was added to the extracellular solution to selectively block the astrocyte specific glutamate transporter, SLC1A2 (see Arriza et al., 1994).
# To confirm that the transcriptional changes induced by albumin were associated with altered cellular functions, the clearance of extracellular glutamate and potassium in cortical slices 24 hours following albumin treatment in vivo was investigated. To measure synaptic glutamate levels during neuronal activation, the slowly inactivating (Lester et al., 1990) NMDA currents in cortical neurons were recorded by using the whole-cell patch configuration (in the presence of non-NMDA glutamate and GABA receptor blockers, see Methods). Cells were clamped at +40 mV to prevent a potential confounding effect of post-synaptic depolarization due to the accumulation of synaptic [K^+]o. […] Synaptic glutamate elicited by 50 extracellular stimulations at 2, 5, 10, 20, 50 and 100 Hz before and after adding the astrocytic SLC1A2 specific inhibitor, DHK was measured. In neurons from control animals, DHK had no effect on single EPSCs or EPSCs elicited at low stimulation frequencies (<20 Hz). […] The same experiments were then repeated 24 h following cortical application of albumin (i.e. during epileptogenesis). In contrast to the control experiments, DHK had no effect on EPSC amplitude in treated slices (FIG. 13b-c, right), supporting reduced expression of the astrocytic transporter SLC1A2.
# T1 sequence (P31596 whole entry): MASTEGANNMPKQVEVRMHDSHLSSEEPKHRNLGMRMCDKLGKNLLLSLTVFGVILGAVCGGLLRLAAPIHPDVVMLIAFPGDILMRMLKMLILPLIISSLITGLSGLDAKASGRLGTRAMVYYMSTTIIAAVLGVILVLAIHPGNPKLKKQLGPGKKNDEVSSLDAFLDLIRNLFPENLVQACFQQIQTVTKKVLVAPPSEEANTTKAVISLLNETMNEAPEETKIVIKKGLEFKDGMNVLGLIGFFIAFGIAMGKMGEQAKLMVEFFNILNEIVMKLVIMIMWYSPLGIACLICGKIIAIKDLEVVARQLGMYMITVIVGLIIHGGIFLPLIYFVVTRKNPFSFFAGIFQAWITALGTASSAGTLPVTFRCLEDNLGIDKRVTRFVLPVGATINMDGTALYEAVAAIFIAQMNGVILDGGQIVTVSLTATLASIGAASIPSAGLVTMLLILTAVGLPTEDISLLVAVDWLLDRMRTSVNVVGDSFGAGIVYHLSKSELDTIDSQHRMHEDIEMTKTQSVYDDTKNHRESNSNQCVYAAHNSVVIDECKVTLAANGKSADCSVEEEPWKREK
molecule,measurement,setting,value
"CCCCc1nc(Cl)c(CO)n1Cc1ccc(-c2ccccc2-c2nnn[nH]2)cc1.[K] [Losartan, 2-butyl-4-chloro-1-[p-(o-1H-tetrazol-5-ylphenyl)benzyl]imidazole-5-methanol, monopotassium salt, reference compound]",number of seizure like events (SLEs),[1]; losartan-treated rats (n=7) compared to BSA-treated ones (n=8),significantly smaller
same,"albumin-induced EEG changes (signal harmony, complexity) during epileptogenesis","[1]; single, focal application together with BSA, 10 μM",reversed the albumin-induced EEG changes
"TGF-β1: TGF-β1 (10 ng/ml, Peprotech), used to activate the TGF-β pathway",integral of the field potential,"neocortical slices; inducer alone, without TGF-βR blockers",84.1±20.1 mV*ms
same,"evoked epileptiform activity in response to stimulation of the white matter, slices showing it",neocortical slices; slices incubated with the inducer,5 out of 5
"CC(C)[C@H]1CN[C@H](C(=O)O)[C@H]1CC(=O)O [DHK, dihydrokainic acid, reference compound]",effect on NMDA currents at stimulation frequencies >20 Hz,[2]; neurons from control animals,increased NMDA currents
same,effect on single EPSCs or EPSCs elicited at low stimulation frequencies (<20 Hz),[2]; neurons from control animals,no effect
same,effect on EPSC amplitude,[2]; slices 24 h following cortical application of albumin,no effect
